Reference: PubChem BioAssay AID1259338 (Broad Institute, 2017)
Activity calls are given as the source filed them.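 The calls were made as follows: active = compounds lowering the signal with a fitted AC50 at or below a set concentration limit; inconclusive = flat curve with 30 to 70% inhibition, or a poor fit; inactive = the rest.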

Biological target: Caspase recruitment domain-containing protein 9 (Homo sapiens) + E3 ubiquitin-protein ligase TRIM62 (Homo sapiens) (UniProt Q9H257+Q9BVG3)
Assay: disruptors of CARD9-TRIM62 binding, dose response, cell lysate, HEK293FT lysates, Luminex bead readout (AID 1259338); as to activity change, negative = inhibition: reference of the scale not given here
Conditions: Luminex bead PPI, MFI

Caspase recruitment domain-containing protein 9 (Homo sapiens) + E3 ubiquitin-protein ligase TRIM62 (Homo sapiens), sequence (Q9BVG3 whole entry, looked up, the tested form may be a part): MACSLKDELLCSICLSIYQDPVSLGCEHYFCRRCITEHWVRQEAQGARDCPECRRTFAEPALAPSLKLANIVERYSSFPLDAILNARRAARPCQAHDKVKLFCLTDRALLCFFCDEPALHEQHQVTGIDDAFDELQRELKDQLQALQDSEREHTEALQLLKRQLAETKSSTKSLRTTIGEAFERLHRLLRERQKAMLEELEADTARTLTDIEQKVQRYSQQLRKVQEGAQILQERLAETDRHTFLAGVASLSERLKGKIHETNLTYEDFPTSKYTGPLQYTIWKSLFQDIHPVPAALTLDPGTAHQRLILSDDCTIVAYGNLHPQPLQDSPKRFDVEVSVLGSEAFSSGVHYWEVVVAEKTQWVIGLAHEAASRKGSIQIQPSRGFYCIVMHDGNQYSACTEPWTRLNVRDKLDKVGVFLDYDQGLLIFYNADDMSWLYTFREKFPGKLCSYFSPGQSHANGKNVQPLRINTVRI
Caspase recruitment domain-containing protein 9 (Homo sapiens) + E3 ubiquitin-protein ligase TRIM62 (Homo sapiens), sequence (Q9H257 whole entry, looked up, the tested form may be a part): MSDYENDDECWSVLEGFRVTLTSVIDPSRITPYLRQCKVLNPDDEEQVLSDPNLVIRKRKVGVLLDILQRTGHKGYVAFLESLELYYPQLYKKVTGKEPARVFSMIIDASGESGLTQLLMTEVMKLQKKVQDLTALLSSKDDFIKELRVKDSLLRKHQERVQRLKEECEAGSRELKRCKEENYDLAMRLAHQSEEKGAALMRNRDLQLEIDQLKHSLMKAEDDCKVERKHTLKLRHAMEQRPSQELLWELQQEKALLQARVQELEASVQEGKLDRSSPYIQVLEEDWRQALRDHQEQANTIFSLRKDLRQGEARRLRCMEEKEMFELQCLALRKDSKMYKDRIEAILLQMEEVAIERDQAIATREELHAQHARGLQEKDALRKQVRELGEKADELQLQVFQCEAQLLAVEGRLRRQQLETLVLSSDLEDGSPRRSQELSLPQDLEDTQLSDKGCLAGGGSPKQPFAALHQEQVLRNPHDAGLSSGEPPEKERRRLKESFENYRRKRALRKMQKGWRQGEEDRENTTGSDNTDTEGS

Row | Compound | AC50
1 | O=C(COC(=O)c1ccc(F)cc1F)Nc1ncccn1 | 38.8 µM
2 | O=S(=O)(c1ccc2nc(-c3ccco3)c(-c3ccco3)nc2c1)N1CCOCC1 | > 160 µM (inactive)
3 | O=C(Nc1nc(-c2ccccn2)cs1)c1cccc(-n2cnnn2)c1 | 77.9 µM
4 | Nc1ccc(-c2cccc(CN3CCCC3)c2)cc1 | > 160 µM (inactive)

Other lines, results leading:

Row | AC50 | Compound
5 | 63.1 µM | COc1ccc(S(=O)(=O)N2CCN(C(=O)c3cc4c(s3)CCC4)CC2)cc1
6 | > 160 µM (inactive) | Cc1ccc2cc(CN(Cc3ccco3)S(C)(=O)=O)c(=O)[nH]c2c1
7 | > 160 µM (inactive) | Cc1ccc(S(=O)(=O)Nc2ccc3c(c2)C(=O)N([C@H](C)CO)C[C@H](C)[C@@H](CN(C)C(=O)C2CCCCC2)OCCCC[C@H](C)O3)cc1

Same assay, conditions: Luminex bead PPI, MFI, at 80 µM (top of the series)

Row | Compound | activity change, negative = inhibition
8 | COc1ccc(CNC(=O)c2nc(Nc3ccc(C)cc3)c3ccccc3n2)cc1 | inactive
9 | Cc1noc(C)c1S(=O)(=O)Nc1ccc2c(c1)C(=O)N([C@H](C)CO)C[C@H](C)[C@@H](CN(C)CC1CCCCC1)OCCCC[C@H](C)O2 | inactive
10 | CC1Cc2ccccc2N1CC(=O)NC(=O)NC(C)(C)C (stereo unspecified) | inactive
11 | CCOC(=O)c1[nH]c(Cc2[nH]c(C(=O)OCC)c(C)c2C)c(C)c1C | inactive
12 | O=C(COC(=O)c1cc(-c2cccs2)nc2ccccc12)NCc1ccco1 | inactive
13 | C[n+]1cccc2cccc(O)c21 | inactive
14 | O=C1NC(c2ccc(Br)cc2)Nc2sc3c(c21)CCC3 (stereo unspecified) | inactive
15 | Cc1nc(C)c(C(=O)Nc2ncc([N+](=O)[O-])s2)o1 | inactive
16 | O=C(Cc1cccs1)Nc1nnc(Cc2ccccc2)s1 | inactive
17 | O=S(=O)(c1ccc(F)cc1)N1CN(Cc2ccco2)c2nc3ccccc3nc21 | inactive
18 | CC1(C)Cc2ccccc2-c2nc(-c3ccccc3)oc(=O)c21 | inactive
19 | O=C(CCCN1C(=O)NC2(CCCC2)C1=O)Nc1ccc(F)cc1 | inactive
20 | Cc1cc(C(=O)Nc2nc3c(s2)CCc2ccccc2-3)no1 | inactive
21 | CCOC(=O)c1ccc(-c2ccc(C3CC(=O)Nc4cc5c(cc43)OCCO5)o2)cc1 (stereo unspecified) | inactive
22 | C[C@H](CO)N1C[C@H](C)[C@@H](CN(C)CC2CCCCC2)OCCCC[C@H](C)Oc2ccc(NS(=O)(=O)c3ccccc3)cc2C1=O | inactive
23 | Cc1ccc(-c2nn(-c3ccccc3)cc2CN(Cc2ccccc2)C(=O)CCC(=O)O)o1 | inactive
24 | O=C(Nc1nnc(-c2ccco2)s1)c1ccccc1 | inactive
25 | Cc1ccc2c(c1)C(N1CCCC1=O)CC(c1ccco1)N2 (stereo unspecified) | inactive
26 | N#Cc1c(-c2ccco2)cc(-c2ccccn2)nc1N | inactive

Second part, the compound after the results:

Row | activity change, negative = inhibition | Compound
27 | inactive | CCOc1ccc(-n2c3nc4ccccc4nc3c3c(=O)n(Cc4ccco4)cnc32)cc1
28 | inactive | Cc1cnc(C)c(N2CCN(C(=O)[C@H]3CC[C@@H](N)C3)CC2)n1
29 | inactive | Nc1cc2c(cc1O)CCCC2
30 | inactive | Cc1[nH]c2ccc(Cl)cc2c(=O)c1CN1CCCC1
31 | inactive | O=C(CN1CCN(c2ccccc2O)CC1)NC(=O)NC1CCCC1
32 | inactive | O=C(Nc1nc(-c2ccco2)c(-c2ccco2)s1)c1ccc(F)cc1F
33 | inactive | O=c1oc(/C=C/c2ccc([N+](=O)[O-])s2)nc2ccccc12
34 | inactive | CN(C)C(CN=C1NS(=O)(=O)c2ccccc21)c1ccco1 (stereo unspecified)
35 | inactive | Nc1ccccc1Sc1nccc(C(F)(F)F)n1
36 | inactive | C[C@H](CO)N1C[C@H](C)[C@H](CN(C)C(=O)C2CCCCC2)OCCCC[C@H](C)Oc2ccc(NS(=O)(=O)c3cccs3)cc2C1=O
